Source: patent US12448383B2, “Compounds and methods for treatment of viral infections” (priority 2022, dated 2025)
Like-named read-outs stand apart in the source and are kept apart here.

Tests used:
[1] = Stability in pH7 buffered solution; type: physicochemical; conditions: pH7 phosphate buffer, 40° C., Table N2
Procedure: Example N: Stability in p112 and p117 Buffered Solutions
The aqueous stability of compounds over a time of 24 hours at 40° C. was assessed. Stability was determined in 50 mM phosphate buffered solutions at both pH2 and pH7, with 150 mM NaCl (to achieve isotonicity). 3-5 mg of solid compounds were added to 7 mL scintillation vials. Acetonitrile was added to each vial to produce a 1 mg/mL stock solution. Stock solutions were diluted to 50 μg/mL in either pH2 or pH7 phosphate buffer, to a volume of 1 mL. For each compound and pH condition, 50 μg/mL samples were prepped in duplicate. One sample was placed on the UPLC tray at 40° C. for analysis, and the second sample was placed in a 40° C. oven for storage. Sample preps for each compound were offset by 40 minutes to account for run time on UPLC.
Concentration timepoints were measured at 0, 3, 6, 9, and 12 hrs. After 24 hrs, samples in the 40° C. oven were removed and analyzed by UPLC.
In FIG. 2, % AN stands for % area normalized. That is, % AN is the area of the compound peak relative to the sum of areas of all the peaks in the UPLC chromatogram. For example, if there were two peaks, compound peak with an area of 9 and another peak with an area of 1, then the % AN of the compound peak would be 90%.

[2] = Stability in pH2 buffered solution; type: physicochemical; conditions: pH2 phosphate buffer, 40° C., 24 h; Table N2
Summary of the method: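 Compounds diluted from 1 mg/mL acetonitrile stock to 50 μg/mL in 50 mM phosphate buffer with 150 mM NaCl at pH2 or pH7, held at 40° C. for 24 hrs. UPLC sampling at 0, 3, 6, 9, 12 hrs, plus 24 hrs from oven-stored duplicate; reported as % area normalized of compound peak.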

[3] = test system: Respiratory syncytial virus recombinant with luciferase (RSV-Luc5) in HEp-2 cells; experiment: microbe, parasite or virus in culture; type: cell-based; conditions: human respiratory syncytial virus
[4] = Thermodynamic solubility in pH7 buffered solution; conditions: 50 mM phosphate buffer pH7, 150 mM NaCl, ambient temperature, 24 hours
Procedure: Solubility was determined at ambient temperature in a 50 mM phosphate buffered pH7 solution with 150 mM NaCl (to achieve isotonicity). Solids were added to the buffered solution in 1.5-mL Eppendorf tubes, vortexed for 1 minute, then agitated for 24 hours in an Eppendorf ThermoMixer C. […] Supernatants were diluted to a volume of 1 mL with 30:70 v/v acetonitrile:water. All diluted supernatants were analyzed by UPLC using a Waters Acquity UPLC with a PDA UV detector.

Plasma stability = type: in vitro ADME; set-up: unit not given here; conditions: 37° C., 2 μM substrate
Summary of the method: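 Reaction mixture was sampled at 0.05, 0.5, 1, 2, 3 and 4 hr into quench solution containing internal standard, then centrifuged and diluted with water. Remaining analyte was measured by LC-MS on a Q-Exactive using a formic acid/acetonitrile gradient, with 5 ppm mass tolerance.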

GI S9 stability = type: in vitro ADME; conditions: human, s9, pH 7.4
Procedure: Example G: GI S9 Stability
Duplicate aliquots of test compound or positive control substrate (GS-7340) were added to S9 stock diluted with 100 mM phosphate buffered saline, pH 7.4, to obtain a protein concentration of 1.0 mg/mL. The S9 metabolic reactions were initiated by the addition of the substrates to the S9 reaction mixture to a final concentration of 2 μM. At 0, 10, 20, 30, 60 and 120 min, […] aliquots of the reaction mixture were transferred to plates containing […] of IS/Q solution. After quenching, the plates were centrifuged at 3000 g for 30 minutes, and 150 μL aliquots of each supernatant were diluted with 150 μL water. Aliquots ([…]) of the diluted supernatant were analyzed on a Thermo Q-Exactive mass spectrometer as described below. GI S9 Stability—No phenylmethylsulfonyl fluoride (PMSF): Similar to the procedure described above, test compounds were incubated at 2 μM with 1 mg/mL PMSF-free Intestinal S9 fractions. Samples are removed at 6 time points over the course of a 120 min experiment and the parent compound disappreance and reference compound A formation is determined by mass spectrometry.
Example K: Liquid Chromatography/Mass Spectroscopy Methods for S9 and Plasma Stability
Quantification of test compounds, Reference Compound A (S9 stability assay nucleoside metabolite), and controls was performed by analyte/internal standard peak area ratio (PAR) values measured on a Thermo Q-Exactive mass spectrometer coupled to a Dionex UltiMate 3000 HPLC with a Leap Technologies HTC PAL autosampler. The column used for analysis of test compounds and Reference Compound A was a Waters Acquity BEH C18 ([…] particle size, 2.1′50 mm). The column used for control (GS-7340) was a Thermo Hypersil GOLD ([…] particle size, 2.1′50 mm). Mobile phase A consisted of 0.1% (v/v) formic acid in water. Mobile phase B consisted of 0.1% (v/v) formic acid in acetonitrile. Elution of analytes was achieved by a series of linear gradients of acetonitrile in water containing 0.1°(v/v) formic acid. The mass spectrometer was calibrated on a weekly basis and mass tolerance of 5 ppm was used.

[5] = CC50 MT4 cytotoxicity (Cell-Titer Glo); type: cell-based; conditions: human
Summary of the method: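 Uninfected MT-4 and HEp-2 cells cultured 4-5 days at 37° C with 3-fold serially diluted compound (15 nM to 100,000 nM). Viability read by Cell-Titer Glo luminescence; untreated and 2 μM puromycin wells set 100% and 0%. CC50 from non-linear regression as concentration reducing viability by 50%.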

[6] = test system: Respiratory syncytial virus recombinant with luciferase (RSV-Luc5) in Normal Human Bronchial Epithelial (NHBE) cells; experiment: microbe, parasite or virus in culture; type: cell-based
[7] = test system: SARS Coronavirus 2 recombinant with NanoLuc (SARS-CoV2-NLuc) in A549-hACE2 cells; experiment: organism not typed; type: cell-based
[8] = test system: Caco-2 cells (clone C2BBe1); experiment: CACO-2 permeability; type: in vitro ADME; set-up: unit not given here; conditions: for DM Caco2 A to B: apical to basolateral, donor pH 6.5, receiver pH 7.4; for DM Caco2 B to A: basolateral to apical
Summary of the method: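 Caco-2 monolayers grown 21 days on collagen-coated transwells and checked for integrity by TEER. Donor buffer was HBSS/HEPES/glucose pH 6.5 with 200 μM BNPP; receiver was pH 7.4 with BSA. Compounds were dosed apically or basolaterally for A-to-B and B-to-A transport, with receiver sampling at 1 and 2 h, LC-MS/MS analysis and percent recovery.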

[9] = GI S9 stability - no PMSF; type: in vitro ADME; conditions: pH 7.4
Summary of the method: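 Compounds were incubated at 2 μM with PMSF-free intestinal S9 (1 mg/mL protein) in 100 mM PBS, pH 7.4, sampling at 6 time points over 120 min. Parent disappearance and formation of the nucleoside metabolite Reference Compound A were quantified by LC-MS (Q-Exactive) using analyte/internal standard peak area ratios.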

[10] = HEp-2, 72 h, read-out: RSV Hep2 EC50
[11] = uninfected MT-4 cells, Table D3, read-out: CC50 MT4 384
[12] = read-out: EC50 RSVFluc-NHBE 384 V2
[13] = A549; read-out: EC50 SARS CoV2 NanoLuc A549 384

SMILES | pH 7 Stability 24 h % AN [1] [% AN] | pH 2 Stability 24 h % AN [2] [% AN] | EC50 [3, 10] [nM] | Sol pH 7 [4] | STA Human Plasma 37 (Plasma stability) | half-life at 2 µM (GI S9 stability) [min] | CC50 [5] [µM] | EC50 ([6]; 72 h, read-out: RSV NHBE EC50) [nM] | EC50 ([7]; 48 h; read-out: SARS-CoV2 EC50) [nM] | DM Caco2 A to B [8] | DM Caco2 B to A [8] | EC50 ([7]; 48 h, read-out: SARS-CoV2 EC50) [nM] | half-life at 2 µM ([9]; human intestinal S9, PMSF-free, read-out: GIS9-HUMAN-NoPMSF T1/2) [min] | EC50 ([3]; HEp-2, read-out: EC50 RSVFluc-Hep2 384 V2) [nM] | CC50 [5, 11] [µM] | EC50 [6, 12] [nM] | EC50 [7, 13] [nM] | logD (DM logD) | GIS9-HUMAN-NoPMSF T1/2 ([9]; human, s9, 2 µM)
N#C[C@@]1(c2ccc3c(N)ncnn23)O[C@H](COC(=O)OCc2ccccc2)[C@@H](O)[C@H]1O [Compound 13, ((2R,3S,4R,5R)-5-(4-aminopyrrolo[2,1-f][1,2,4]triazin-7-yl)-5-cyano-3,4-dihydroxytetrahydrofuran-2-yl)methyl benzyl carbonate] | 97 | 98 | 444 | 0.12 | 3 | 35.3 | 39.1 | 1530 | 1250 | 0.59 | 8.8 | – | – | – | – | – | – | – | –
N#C[C@@]1(c2ccc3c(N)ncnn23)O[C@H](COC(=O)OC2CCCCCCC2)[C@@H](O)[C@H]1O [Compound 14, ((2R,3S,4R,5R)-5-(4-aminopyrrolo[2,1-f][1,2,4]triazin-7-yl)-5-cyano-3,4-dihydroxytetrahydrofuran-2-yl)methyl cyclooctyl carbonate] | 97 | 97 | 350 | – | 262.42 | 56.3 | > 50 | 380 | – | 1.84 | 21.7 | 1560 | 1.07 | – | – | – | – | – | –
CCC(CC)COC(=O)OC[C@H]1O[C@@](C#N)(c2ccc3c(N)ncnn23)[C@H](O)[C@@H]1O [Compound 15, ((2R,3S,4R,5R)-5-(4-aminopyrrolo[2,1-f][1,2,4]triazin-7-yl)-5-cyano-3,4-dihydroxytetrahydrofuran-2-yl)methyl (2-ethylbutyl) carbonate] | 97 | 98 | 530 | 0.26 | 40.503 | 33.1 | > 50 | 900 | 1240 | 1.46 | 12 | – | – | – | – | – | – | – | –
CC(C)OC(=O)Nc1ncnn2c([C@]3(C#N)O[C@H](COC(=O)OC(C)C)[C@@H](OC(=O)OC(C)C)[C@H]3O)ccc12 [Compound 62, isopropyl (7-((2R,3R,4S,5R)-2-cyano-3-hydroxy-4-((isopropoxycarbonyl)oxy)-5-(((isopropoxycarbonyl)oxy)methyl)tetrahydrofuran-2-yl)pyrrolo[2,1-f][1,2,4]triazin-4-yl)carbamate] | 10 | 61 | > 50000 | 0.1 | 488.7 | 31.1 | > 50 | ≥ 5000 | ≥ 5000 | 4.19 | 12.12 | – | – | – | – | – | – | – | –
N#C[C@@]1(c2ccc3c(N)ncnn23)O[C@H](COC(=O)OCCl)[C@@H](O)[C@H]1O [Compound 101, ((2R,3S,4R,5R)-5-(4-aminopyrrolo[2,1-f][1,2,4]triazin-7-yl)-5-cyano-3,4-dihydroxytetrahydrofuran-2-yl)methyl (chloromethyl) carbonate] | – | – | – | – | – | – | – | – | – | – | – | – | – | 1840 | > 50 | 1960 | 3210 | 0.9 | –
CCOP(=O)(O)O[C@H]1[C@@H](O)[C@](C#N)(c2ccc3c(N)ncnn23)O[C@@H]1COC(=O)OC(C)C [Compound 144, [(2R,3S,4R,5R)-5-(4-aminopyrrolo[2,1-f][1,2,4]triazin-7-yl)-5-cyano-3-[ethoxy(hydroxy)phosphoryl]oxy-4-hydroxy-tetrahydrofuran-2-yl]methyl isopropyl carbonate] | – | – | – | – | – | – | – | – | – | – | – | – | – | – | > 50 | 3060 | > 50000 | 0.4 | –
CN1[C@@H]2CC[C@H]1C[C@@H](OC(=O)OC[C@H]1O[C@@](C#N)(c3ccc4c(N)ncnn34)[C@H](O)[C@@H]1O)C2 [Compound 156, ((2R,3S,4R,5R)-5-(4-aminopyrrolo[2,1-f][1,2,4]triazin-7-yl)-5-cyano-3,4-dihydroxytetrahydrofuran-2-yl)methyl ((1R,3r,5S)-8-methyl-8-azabicyclo[3.2.1]octan-3-yl) carbonate] | – | – | – | – | 248.79 | – | – | – | – | 0.12 | 0.13 | – | – | – | > 50 | 49800 | 31400 | 0.3 | 789
